Target: T1, Free fatty acid receptor 4 (Homo sapiens, UniProt Q5NUL3)
T1 sequence (Q5NUL3 whole entry): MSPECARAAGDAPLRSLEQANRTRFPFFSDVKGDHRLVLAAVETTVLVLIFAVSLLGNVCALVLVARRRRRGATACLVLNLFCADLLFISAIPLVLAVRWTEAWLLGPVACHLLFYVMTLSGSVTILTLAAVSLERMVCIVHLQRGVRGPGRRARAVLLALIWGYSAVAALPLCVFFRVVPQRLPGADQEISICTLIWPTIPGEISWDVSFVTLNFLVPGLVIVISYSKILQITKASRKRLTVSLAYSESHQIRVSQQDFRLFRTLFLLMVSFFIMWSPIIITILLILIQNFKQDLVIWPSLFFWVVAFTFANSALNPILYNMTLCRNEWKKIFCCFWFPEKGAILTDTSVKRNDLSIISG
Assay: GPR120 pERK AlphaScreen SureFire Assay: The human and mouse GPR120-mediated intracellular phosphorylated ERK assays were also established using CHO-K1 cells stably transfected with the short form of human or mouse GPR120 receptor. Cells were cultured in growth medium consisting of F-12 media (Invitrogen Cat. #11765) with 5% Charcoal/Dextran FBS (Invitrogen Cat. #12676-029) and 500 μg/mL GENETICIN® (Life Technologies Cat. #10131-027). Cells were cryo preserved at a concentration of 3×10^6 cells/mL, in 70% F-12, 20% Charcoal/Dextran FBS and 10% DMSO, and frozen in liquid nitrogen at a low passage number.For the pERK assay, 3×10^6 cells/mL cryopreserved human and mouse cells were thawed rapidly in a 37° C. water bath and added to a T-225 flask containing 50 mL growth medium. The flasks were placed in a tissue culture incubator overnight (37° C., 5% CO2). The next day, cells were harvested with trypsin (Gibco Cat. #25300-054), resuspended in serum-containing growth medium and counted using a Cellometer and volume adjusted to a concentration of 0.5×10^6 cells/mL. Cells were plated into 384-well clear bottom tissue culture plates (BD Cat. #353962) at 50 μL/well, for a density of 25,000 cells/well using a MULTIDROP® and incubated for 16-18 hours (overnight) at 37° C. with 5% CO2. The next day, cells were washed once with 50 μL of PBS without Ca++/Mg++ (Gibco Cat. #14190-036) and serum starved in 25 μL of F-12 media without any serum or antibiotics for 2 hours at 37° C.
Assay type: cell-based

| Compound | EC50 |
| --- | --- |
| O=C(O)CCCCc1ccc(N2CCCCC(Oc3ccc(F)cc3)C2)cc1 (stereo not given) | 3550 nM |
| O=C(O)CCCCc1ccc(N2CCCC(Oc3ccccc3)C2)cc1 (stereo not given) | 420 nM |
| O=C(O)COCCc1ccc(N2CCCC(Oc3ccccc3)C2)cc1 (stereo not given) | 2420 nM |
| O=C(O)CCCCc1ccc(C2CCCC(Nc3ccccc3)C2)cc1 (stereo not given) | 3030 nM |
| O=C(O)CCCCc1ccc(N2CCC[C@@H](Oc3ccccc3)C2)cc1 | 780 nM |

Source: ChEMBL document CHEMBL5727173, “Phenyl-(aza)cycloalkyl carboxylic acid GPR120 modulators” (2019)
